This passage reports T/C results from PubChem BioAssay AID330 (DTP/NCI, 2004).

The assay deals with P388 leukemia ip, CD2F1 mice, survival T/C. Nature of the assay: NCI In Vivo Anticancer Drug Screen. Data for tumor model P388 Leukemia (intraperitoneal) in CD2F1 (CDF1) mice. Conditions: endpoint: median survival time, higher = longer survival. A digest of the protocol: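 Mice carrying the transplanted tumor received test compound or vehicle. Survival was recorded in each group, and the value is the treated-group measurement divided by that of the vehicle-treated control group.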

Where [1] appears, read: dose: 50.0 mg/kg/injection, schedule: Q01DX005 (ip), vehicle: Klucel (hydroxypropylcellulose) (HPC).
Setting [2] is: dose: 100.0 mg/kg/injection, schedule: Q01DX005 (ip), vehicle: Klucel (hydroxypropylcellulose) (HPC).
Where [3] appears, read: dose: 200.0 mg/kg/injection, schedule: Q01DX005 (ip), vehicle: Klucel (hydroxypropylcellulose) (HPC).
The mark [4] stands for this setting: dose: 50.0 mg/kg/injection, schedule: Q01DX005 (ip), vehicle: saline with Tween-80.
Where [5] appears, read: dose: 100.0 mg/kg/injection, schedule: Q01DX005 (ip), vehicle: saline with Tween-80.
Setting [6] is: dose: 200.0 mg/kg/injection, schedule: Q01DX005 (ip), vehicle: saline with Tween-80.
Setting [7] is: dose: 100.0 mg/kg/injection, schedule: Q01DX001 (ip), vehicle: Klucel (hydroxypropylcellulose) (HPC).
The mark [8] stands for this setting: dose: 200.0 mg/kg/injection, schedule: Q01DX001 (ip), vehicle: Klucel (hydroxypropylcellulose) (HPC).
The mark [9] stands for this setting: dose: 400.0 mg/kg/injection, schedule: Q01DX001 (ip), vehicle: Klucel (hydroxypropylcellulose) (HPC).

Molecules are shown by their SMILES. Values joined by “and” are separate entries in the source; they are usually repeats but may differ in a detail not shown here. Equal values may be shown once. Toxic doses and inconclusive results are not listed. Bridge positions count the residues as written; N and C are the ends. Peptide text beside a SMILES is read from it. I, II: the chains in the order shown.

On to `CN(CCO)C1=CC(=O)C(N2c3ccccc3Nc3cc(O)c(N(C)CCO)cc32)=CC1=O`, for which the T/C by setting is: (dose: 50.0 mg/kg/injection, schedule: Q01DX009 (ip), vehicle: suspension in saline) 101 % of control; (dose: 100.0 mg/kg/injection, schedule: Q01DX009 (ip), vehicle: suspension in saline) 99 % of control; (dose: 200.0 mg/kg/injection, schedule: Q01DX009 (ip), vehicle: suspension in saline) 105 % of control.

In the case of `CCCCC(CC)C(=O)OC(C)C(=O)N(CCCC)CCCC` (stereo not given), the T/C runs as follows: (dose: 25.0 mg/kg/injection, schedule: Q01DX005 (ip), vehicle: Klucel (hydroxypropylcellulose) (HPC)) 105 % of control; under setting [1], 103 % of control; under setting [2], 105 % of control; under setting [3], 95 % of control.

With `CCCCc1c(O)c2c(=O)n(C)c(=O)n3c4ccccc4n(c1=O)c23`, the T/C reads like this: (dose: 60.0 mg/kg/injection, schedule: Q01DX005 (ip), vehicle: saline with Tween-80) 100 % of control; (dose: 120.0 mg/kg/injection, schedule: Q01DX005 (ip), vehicle: saline with Tween-80) 89 % of control; (dose: 240.0 mg/kg/injection, schedule: Q01DX005 (ip), vehicle: saline with Tween-80) 90 % of control.

As to `CC(C)C1=C2C3CC(O)C(C=O)=CC(=O)C3(C)CCC2(C)CC1` (stereo not given), the T/C (dose: 6.25 mg/kg/injection, schedule: Q01DX009 (ip), vehicle: saline + alcohol) was 112 % of control; the T/C (dose: 12.5 mg/kg/injection, schedule: Q01DX009 (ip), vehicle: saline + alcohol) was 110 % of control; the T/C (dose: 25.0 mg/kg/injection, schedule: Q01DX009 (ip), vehicle: saline + alcohol) was 108 % of control.

Consider `Cc1cc(C)n(P2(n3nc(C)cc3C)=NP(n3nc(C)cc3C)(n3nc(C)cc3C)=NP(n3nc(C)cc3C)(n3nc(C)cc3C)=N2)n1`, for which the T/C is 98 % of control under setting [4], 98 % of control under setting [5] and 99 % of control under setting [6].

Turning to `Cc1c2nc(N)nc-2ccc2[nH]c(N)nc12`, the T/C is, setting by setting: (dose: 0.5 mg/kg/injection, schedule: Q01DX009 (ip), vehicle: Klucel (hydroxypropylcellulose) (HPC)) 102 % of control; (dose: 1.0 mg/kg/injection, schedule: Q01DX009 (ip), vehicle: Klucel (hydroxypropylcellulose) (HPC)) 108 % of control; (dose: 2.0 mg/kg/injection, schedule: Q01DX009 (ip), vehicle: Klucel (hydroxypropylcellulose) (HPC)) 108 % of control; (dose: 4.0 mg/kg/injection, schedule: Q01DX009 (ip), vehicle: Klucel (hydroxypropylcellulose) (HPC)) 102 % of control.

For `CNc1c2ccccc2nc2ccccc12`, the T/C is 98 % of control (dose: 12.5 mg/kg/injection, schedule: Q04DX002 (ip), vehicle: distilled water + Tween-80) and 100 % of control (dose: 25.0 mg/kg/injection, schedule: Q04DX002 (ip), vehicle: distilled water + Tween-80).

As to `C/C(=N\Nc1ccc([N+](=O)[O-])cc1[N+](=O)[O-])c1ccc(C)cc1`, the T/C (dose: 50.0 mg/kg/injection, schedule: Q01DX001 (ip), vehicle: Klucel (hydroxypropylcellulose) (HPC)) is 105 % of control; the T/C under setting [7] was 107 % of control; the T/C under setting [8] was 95 % of control; the T/C under setting [9] is 91 % of control.

As to `CCNC(=O)OCc1c(Cl)nc2sccn12`, the T/C is 106 % of control under setting [7], 107 % of control under setting [8] and 100 % of control under setting [9].

For the molecule `C=C1C(=O)OC2CC3(C)C=CC(=O)C(=C)C3CC12` (stereo not given), the T/C was 104 % of control (dose: 12.5 mg/kg/injection, schedule: Q04DX003 (ip), vehicle: Klucel (hydroxypropylcellulose) (HPC)) and 114 % of control (dose: 25.0 mg/kg/injection, schedule: Q04DX003 (ip), vehicle: Klucel (hydroxypropylcellulose) (HPC)).

Consider `CNc1ccc(O)c2c1C(=O)c1ccccc1C2=O`, for which the T/C runs as follows: (dose: 25.0 mg/kg/injection, schedule: Q04DX002 (ip), vehicle: saline with Tween-80) 93 % of control; (dose: 50.0 mg/kg/injection, schedule: Q04DX002 (ip), vehicle: saline with Tween-80) 92 % of control; (dose: 100.0 mg/kg/injection, schedule: Q04DX002 (ip), vehicle: saline with Tween-80) 101 % of control; (dose: 200.0 mg/kg/injection, schedule: Q04DX002 (ip), vehicle: saline with Tween-80) 109 % of control.

Take `COc1cc(/C=C2\NC(=S)N(c3ccccc3)C2=O)ccc1O`: the T/C under setting [4] is 100 % of control and 109 % of control; the T/C under setting [5] was 100 % of control and 101 % of control and 86 % of control; the T/C under setting [6] was 100 % of control and 101 % of control and 86 % of control; the T/C (dose: 400.0 mg/kg/injection, schedule: Q01DX005 (ip), vehicle: saline with Tween-80) is 99 % of control and 100 % of control and 104 % of control.

For `COc1ccc(C2[C@@H]3CCc4ccccc4C3=NN2C(C)=O)cc1` (stereo not given in full), the T/C reads like this: under setting [4], 93 % of control; under setting [5], 91 % of control; under setting [6], 87 % of control.

For the molecule `CCN(CC)CCCC(C)Nc1c(C)cnc2cc(Cl)ccc12` (stereo not given), the T/C is 98 % of control (dose: 50.0 mg/kg/injection, schedule: Q01DX005 (ip), vehicle: saline) and 108 % of control (dose: 100.0 mg/kg/injection, schedule: Q01DX005 (ip), vehicle: saline).

Consider `CCOC(=O)CS(=O)(=O)CCCS(=O)(=O)CC(=O)OCC`, for which the T/C runs as follows: (dose: 50.0 mg/kg/injection, schedule: Q01DX009 (ip), vehicle: saline) 97 % of control; (dose: 100.0 mg/kg/injection, schedule: Q01DX009 (ip), vehicle: saline) 96 % of control; (dose: 200.0 mg/kg/injection, schedule: Q01DX009 (ip), vehicle: saline) 94 % of control.

As to `Cc1ccccc1NC(=O)c1ccc([N+](=O)[O-])cc1`, the T/C is 100 % of control (dose: 100.0 mg/kg/injection, schedule: Q01DX009 (ip), vehicle: saline with Tween-80); 104 % of control (dose: 200.0 mg/kg/injection, schedule: Q01DX009 (ip), vehicle: saline with Tween-80); 90 % of control (dose: 400.0 mg/kg/injection, schedule: Q01DX009 (ip), vehicle: saline with Tween-80).

Consider `Oc1ccc(Cc2ccc(O)cc2)cc1`, for which the T/C reads like this: (dose: 100.0 mg/kg/injection, schedule: Q04DX003 (ip), vehicle: saline with Tween-80) 102 % of control; (dose: 200.0 mg/kg/injection, schedule: Q04DX003 (ip), vehicle: saline with Tween-80) 101 % of control; (dose: 400.0 mg/kg/injection, schedule: Q04DX003 (ip), vehicle: saline with Tween-80) 115 % of control.

In the case of `O=C1C=CC(=O)N1c1ccc(-c2nc3ccccc3o2)cc1`, the T/C is, setting by setting: (dose: 6.25 mg/kg/injection, schedule: Q01DX005 (ip), vehicle: saline with Tween-80) 109 % of control; (dose: 12.5 mg/kg/injection, schedule: Q01DX005 (ip), vehicle: saline with Tween-80) 109 % of control; (dose: 25.0 mg/kg/injection, schedule: Q01DX005 (ip), vehicle: saline with Tween-80) 109 % of control and 111 % of control; under setting [4], 111 % of control.

Take `COc1c2occc2c(CSC(=N)N)c2ccc(=O)oc12`: the T/C is 105 % of control (dose: 25.0 mg/kg/injection, schedule: Q01DX001 (ip), vehicle: saline); 100 % of control (dose: 50.0 mg/kg/injection, schedule: Q01DX001 (ip), vehicle: saline); 100 % of control (dose: 100.0 mg/kg/injection, schedule: Q01DX001 (ip), vehicle: saline).

With `CC[C@H]1C[C@H]2CN(CCc3c([nH]c4ccccc34)[C@@](C(=O)OC)(c3cc4c(cc3OC)N(C=O)[C@H]3[C@@](O)(C(=O)OC)[C@H](OC(C)=O)[C@]5(CC)C=CCN6CC[C@]43[C@@H]65)C2)C1`, the T/C is, setting by setting: (dose: 0.5 mg/kg/injection, schedule: Q01DX001 (ip), vehicle: water) 155 % of control; (dose: 1.0 mg/kg/injection, schedule: Q01DX001 (ip), vehicle: water) 156 % of control and 174 % of control; (dose: 2.0 mg/kg/injection, schedule: Q01DX001 (ip), vehicle: water) 180 % of control; (dose: 4.0 mg/kg/injection, schedule: Q01DX001 (ip), vehicle: water) 90 % of control.

Turning to `CC(C)C(NC(=O)C(N)CSSCC(N)C(=O)NC(C(=O)O)C(C)C)C(=O)O` (stereo not drawn) (I: H-Cys-Val-OH / II: H-Cys-Val-OH; disulfide I:1-II:1; configuration not given here), the T/C runs as follows: under setting [1], 103 % of control; under setting [2], 103 % of control; under setting [3], 101 % of control.

As to `CC(C)N1C(=O)c2ccccc2S12c1ccccc1C(=O)N2C(C)C`, the T/C is, setting by setting: (dose: 100.0 mg/kg/injection, schedule: Q04DX003 (ip), vehicle: Klucel (hydroxypropylcellulose) (HPC)) 93 % of control; (dose: 200.0 mg/kg/injection, schedule: Q04DX003 (ip), vehicle: Klucel (hydroxypropylcellulose) (HPC)) 90 % of control; (dose: 400.0 mg/kg/injection, schedule: Q04DX003 (ip), vehicle: Klucel (hydroxypropylcellulose) (HPC)) 90 % of control.
